{
  "source": "patent US20110039762A1",
  "about": "“TARGETED ANTIMICROBIAL MOIETIES” (C3 JIAN, INC., priority 2009, published 2011)",
  "note": "Entries after “also recorded” stand apart in the source; their conditions may differ.",
  "data": [
    {"test_system": "microorganisms (e.g., bacteria, yeasts, fungi)", "assay": "Targeting peptide binding to target microorganisms (Table 3)", "details": "microorganism the targeting peptide binds; binding in aqueous buffers varied by peptide solubility, preferably 1x PBS", "values": [
      {"substance": "1T-192 (ILVLLALQVELDSKFQY; Peptide with targeting and/or antimicrobial activity) [Peptide 1T-192]", "Target(s)": "S. sanguinis"},
      {"substance": "1T-193 (LMIFDKHANLKYKYGNRSFGVEAIM; Peptide with targeting and/or antimicrobial activity) [Peptide 1T-193]", "Target(s)": "S. sanguinis"},
      {"substance": "1T-195 (AASGFTYCASNGVWHPY; Peptide with targeting and/or antimicrobial activity) [Peptide 1T-195]", "Target(s)": "S. mutans"},
      {"substance": "1T-196 (KPEKEKLDTNTLMKVVNKALSLFDRLLIKFGA; Peptide with targeting and/or antimicrobial activity) [Peptide 1T-196]", "Target(s)": "F. nucleatum; also recorded: S. sanguinis"},
      {"substance": "1T-198 (MPVSKKRYMLSSAYATALGICYGQVATDEKESEITAIPDLLDYLSVEEYLL; Peptide with targeting and/or antimicrobial activity) [Peptide 1T-198]", "Target(s)": "P. gingivalis; also recorded: S. epidermidis; also recorded: S. gordonii; also recorded: S. mitis; also recorded: S. mutans; also recorded: S. oralis; also recorded: S. sanguinis"},
      {"substance": "1T-199 (RAGRIKKLSQKEAEPFEN; Peptide with targeting and/or antimicrobial activity) [Peptide 1T-199]", "Target(s)": "S. sanguinis"},
      {"substance": "1T-201 (KRKHENVIVAEEMRVIKN; Peptide with targeting and/or antimicrobial activity) [Peptide 1T-201]", "Target(s)": "S. sanguinis"},
      {"substance": "1T-207 (SPLEKYGTGSMTALTFLLGCCLLVLSKKSR; Peptide with targeting and/or antimicrobial activity) [Peptide 1T-207]", "Target(s)": "F. nucleatum; also recorded: S. sanguinis"},
      {"substance": "1T-215 (VCFKDISVFLSPFRGQEVLFCGKAKHSLIYVIGT; Peptide with targeting and/or antimicrobial activity) [Peptide 1T-215]", "Target(s)": "S. sanguinis"},
      {"substance": "1T-216 (FFLNVIAIRIPHF; Peptide with targeting and/or antimicrobial activity) [Peptide 1T-216]", "Target(s)": "S. sanguinis"},
      {"substance": "1T-217 (MLSNVLSRSVVSPNVDIPNSMVILSPLLISISNYH; Peptide with targeting and/or antimicrobial activity) [Peptide 1T-217]", "Target(s)": "F. nucleatum; also recorded: S. sanguinis"},
      {"substance": "1T-218 (KLIFAALGLVFLLIGLRDSRSK; Peptide with targeting and/or antimicrobial activity) [Peptide 1T-218]", "Target(s)": "F. nucleatum; also recorded: S. sanguinis"},
      {"substance": "1T-219 (RNINVSATFITEKSLV; Peptide with targeting and/or antimicrobial activity) [Peptide 1T-219]", "Target(s)": "S. sanguinis"},
      {"substance": "1T-222 (RIEASLISAIMFSMFNAIVKFLQK; Peptide with targeting and/or antimicrobial activity) [Peptide 1T-222]", "Target(s)": "F. nucleatum; also recorded: S. sanguinis"},
      {"substance": "1T-237 (EDPVPNHFTLRRNKKEKPSKS; Peptide with targeting and/or antimicrobial activity) [Peptide 1T-237]", "Target(s)": "S. sanguinis"},
      {"substance": "1T-239 (ADDLLNKRLTDLIMENAETVKTIDLDNSD; Peptide with targeting and/or antimicrobial activity) [Peptide 1T-239]", "Target(s)": "A. naeslundii; also recorded: S. gordonii; also recorded: S. mitis; also recorded: S. mutans; also recorded: S. oralis; also recorded: S. sanguinis"},
      {"substance": "1T-242 (KQVQNTTLIICGTVLLGILFKSYLKSQKSV; Peptide with targeting and/or antimicrobial activity) [Peptide 1T-242]", "Target(s)": "F. nucleatum; also recorded: S. sanguinis"},
      {"substance": "1T-248 (IGGALNSCG; Peptide with targeting and/or antimicrobial activity) [Peptide 1T-248]", "Target(s)": "S. sanguinis"},
      {"substance": "1T-249 (VFSVLKHTTWPTRKQSWHDFISILEYSAFFALVIFIFDKLLTLGLAELLKRF; Peptide with targeting and/or antimicrobial activity) [Peptide 1T-249]", "Target(s)": "F. nucleatum; also recorded: S. sanguinis"},
      {"substance": "1T-250 (LVQGDTILIENHVGTPVKDDGKDCLIIREADVLAVVND; Peptide with targeting and/or antimicrobial activity) [Peptide 1T-250]", "Target(s)": "S. mitis; also recorded: S. mutans; also recorded: S. oralis"},
      {"substance": "1T-252 (MKKNLKRFYALVLGFIIGCLFVSILIFIGY; Peptide with targeting and/or antimicrobial activity) [Peptide 1T-252]", "Target(s)": "F. nucleatum; also recorded: S. sanguinis"},
      {"substance": "1T-256 (KGKSLMPLLKQINQWGKLYL; Peptide with targeting and/or antimicrobial activity) [Peptide 1T-256]", "Target(s)": "S. sanguinis"},
      {"substance": "1T-258 (TINIDDKVLDYLKKINSKAITIDLIGCAS; Peptide with targeting and/or antimicrobial activity) [Peptide 1T-258]", "Target(s)": "A. naeslundii; also recorded: F. nucleatum; also recorded: P. gingivalis; also recorded: T. denticola; also recorded: S. mitis; also recorded: S. mutans; also recorded: S. oralis"},
      {"substance": "1T-259 (EKLKKILLKLAVCGKAWYTL; Peptide with targeting and/or antimicrobial activity) [Peptide 1T-259]", "Target(s)": "F. nucleatum; also recorded: P. gingivalis; also recorded: T. denticola; also recorded: S. mitis; also recorded: S. mutans; also recorded: S. oralis; also recorded: S. sanguinis"},
      {"substance": "1T-260 (NILYFIHDENQWEPQKAEIFRGSIKHCAWLSS; Peptide with targeting and/or antimicrobial activity) [Peptide 1T-260]", "Target(s)": "A. naeslundii; also recorded: P. gingivalis; also recorded: S. epidermidis; also recorded: S. gordonii; also recorded: S. mitis; also recorded: S. mutans; also recorded: S. oralis; also recorded: S. sanguinis"},
      {"substance": "1T-261 (SFEKNKIENNLKIAQAYIYIKPKPRICQA; Peptide with targeting and/or antimicrobial activity) [Peptide 1T-261]", "Target(s)": "F. nucleatum; also recorded: S. mutans; also recorded: S. oralis; also recorded: S. sanguinis"},
      {"substance": "1T-264 (LEGKFYMAEDFDKTPECFKDYV; Peptide with targeting and/or antimicrobial activity) [Peptide 1T-264]", "Target(s)": "S. sanguinis"},
      {"substance": "1T-266 (RAGTWLVVDEIR; Peptide with targeting and/or antimicrobial activity) [Peptide 1T-266]", "Target(s)": "S. sanguinis"},
      {"substance": "1T-267 (RIKEERKNRSYKFFIWRLFDEKTGFI; Peptide with targeting and/or antimicrobial activity) [Peptide 1T-267]", "Target(s)": "A. naeslundii; also recorded: F. nucleatum; also recorded: P. gingivalis; also recorded: T. denticola; also recorded: S. mitis; also recorded: S. mutans; also recorded: S. oralis; also recorded: S. sanguinis"},
      {"substance": "1T-268 (PITPKKEKCGLGTYAPKNPVFSKSRV; Peptide with targeting and/or antimicrobial activity) [Peptide 1T-268]", "Target(s)": "F. nucleatum; also recorded: S. mutans; also recorded: S. oralis; also recorded: S. sanguinis"},
      {"substance": "1T-269 (PLYVAAVEKINTAKKH; Peptide with targeting and/or antimicrobial activity) [Peptide 1T-269]", "Target(s)": "F. nucleatum; also recorded: S. mutans; also recorded: S. oralis; also recorded: S. sanguinis"},
      {"substance": "1T-270 (VHEFDIQKILQNR; Peptide with targeting and/or antimicrobial activity) [Peptide 1T-270]", "Target(s)": "F. nucleatum; also recorded: S. mutans; also recorded: S. oralis; also recorded: S. sanguinis"},
      {"substance": "1T-272 (QLAPIDKQLKAVKKIAFYESESTAAKAVTVA; Peptide with targeting and/or antimicrobial activity) [Peptide 1T-272]", "Target(s)": "F. nucleatum; also recorded: S. mutans; also recorded: S. oralis; also recorded: S. sanguinis"},
      {"substance": "1T-273 (YNEPNYKWLESYKIYKQRCEDRTGMYYTEET; Peptide with targeting and/or antimicrobial activity) [Peptide 1T-273]", "Target(s)": "F. nucleatum; also recorded: P. gingivalis; also recorded: T. denticola; also recorded: S. mitis; also recorded: S. mutans; also recorded: S. oralis"},
      {"substance": "1T-274 (ETTTEINAIKLHRIKQRSPQGTRRVN; Peptide with targeting and/or antimicrobial activity) [Peptide 1T-274]", "Target(s)": "F. nucleatum; also recorded: S. mutans; also recorded: S. oralis; also recorded: S. sanguinis"},
      {"substance": "1T-282 (ISLVFPAYT; Peptide with targeting and/or antimicrobial activity) [Peptide 1T-282]", "Target(s)": "F. nucleatum; also recorded: P. gingivalis; also recorded: S. gordonii; also recorded: S. mitis; also recorded: S. mutans; also recorded: S. oralis; also recorded: S. salivarious; also recorded: S. sanguinis"},
      {"substance": "1T-286 (LGFFNNKADLVKADTERDNRMSSLKIKDL; Peptide with targeting and/or antimicrobial activity) [Peptide 1T-286]", "Target(s)": "S. sanguinis"},
      {"substance": "1T-287 (KGYPLPFQYRLNNH; Peptide with targeting and/or antimicrobial activity) [Peptide 1T-287]", "Target(s)": "P. gingivalis; also recorded: T. denticola; also recorded: S. gordonii; also recorded: S. mitis; also recorded: S. mutans; also recorded: S. oralis; also recorded: S. salivarious; also recorded: S. sanguinis"},
      {"substance": "1T-288 (RWVGGEPSADIYLSAKDTKT; Peptide with targeting and/or antimicrobial activity) [Peptide 1T-288]", "Target(s)": "F. nucleatum; also recorded: S. gordonii; also recorded: S. salivarious; also recorded: S. sanguinis"}
    ]}
  ]
}
